The values that follow come from BindingDB's records for doi:10.7270/Q2RJ4GVG (The Scripps Research Institute Molecular Screening Center, 2007).

Each structure is given as a SMILES string. Where only a bound is given, the exact number is not on record here.

What is called EC50 is the concentration at which the effect is half-maximal.

The first experiment addresses T1, Isoform 2 of Nuclear receptor ROR-alpha (Alpha-2) (Homo sapiens, UniProt P35398).
T1 sequence (P35398 whole entry): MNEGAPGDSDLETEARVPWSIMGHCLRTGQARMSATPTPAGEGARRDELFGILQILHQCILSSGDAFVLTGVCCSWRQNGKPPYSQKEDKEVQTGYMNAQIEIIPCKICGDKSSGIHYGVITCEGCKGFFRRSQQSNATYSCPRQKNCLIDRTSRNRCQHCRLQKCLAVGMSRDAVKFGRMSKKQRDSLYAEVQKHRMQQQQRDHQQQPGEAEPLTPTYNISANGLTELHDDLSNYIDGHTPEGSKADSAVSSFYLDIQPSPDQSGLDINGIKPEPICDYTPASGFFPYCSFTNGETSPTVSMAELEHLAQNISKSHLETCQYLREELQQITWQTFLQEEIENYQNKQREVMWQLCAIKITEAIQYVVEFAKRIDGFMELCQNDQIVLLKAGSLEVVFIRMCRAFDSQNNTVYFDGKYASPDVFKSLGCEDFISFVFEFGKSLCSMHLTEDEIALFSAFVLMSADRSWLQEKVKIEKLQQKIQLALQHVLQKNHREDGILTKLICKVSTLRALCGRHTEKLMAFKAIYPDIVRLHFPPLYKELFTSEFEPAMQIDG
Briefly: RORA ligand-binding domain transactivation agonists – cell-based, CHO-K1, Gal4-RORA LBD, luciferase luminescence, dose response (AID 681).
Details: not given
`O=C(NC1CCCC1)c1cc(-c2cccs2)on1` [MLS000087238] gave an EC50 of 1.03 µM.

As for `Cc1ccc2c(c1)c1c3n2CCCNC3CCC1` (stereo unspecified) [MLS000105423], the 50% effective concentration (EC50) is above 99 µM.

Compound `COc1ccc(CCC(=O)Nc2ccc3c(c2)OCCO3)cc1` [MLS000110197] returned an EC50 above 99 µM.

In turn, `CCOc1ccc2nc(N3CCC(C(=O)N4CCN(c5ccccn5)CC4)CC3)sc2c1` [MLS000119552] came in with an EC50 above 3.67 µM.

Regarding `O=C(Nc1nnc(C23CC4CC(CC(C4)C2)C3)s1)c1ccco1` [N-[5-(1-adamantyl)-1,3,4-thiadiazol-2-yl]furan-2-carboxamide], the EC50 is 0.317 µM.

In the case of `O=C(Nc1ccc2nc(-c3ccc(Br)o3)[nH]c2c1)c1cccs1` [SMR000046012], the half-maximal effective concentration (EC50) was 4.09 µM.

`Oc1ccc(Cl)cc1C=Nc1nc2ccccc2[nH]1` [SMR000103225] registered an EC50 above 99 µM.

On to `Cc1nc(N=CN(C)C)sc1C(=O)Nc1ccccc1` [SMR000107046], for which the EC50 stood at 5.11 µM.

Regarding `Cc1c(C(=O)OCC2CCCO2)[nH]c2c1C(=O)CC(c1ccco1)C2` (stereo unspecified) [oxolan-2-ylmethyl 6-(furan-2-yl)-3-methyl-4-oxo-1,5,6,7-tetrahydroindole-2-carboxylate], the concentration for a half-maximal effect (EC50) amounted to 1.67 µM.

Still in this experiment, the particulars now being: inactive by the depositor's call.
`O=C(NCc1cccs1)c1noc2c1CCCC2` [MLS000087354] displayed an EC50 of 10.1 µM.

Turning to `O=C(CSc1nc[nH]n1)Nc1nnc(-c2ccccc2)s1` [SMR000091719], it took 12.1 µM to reach a half-maximal effect (EC50).
